Legend:
[1] = tested on: fasting blood glucose [空腹時血糖値]; assay: Example 1: fasting blood glucose in high-fat-diet ICR mice, olanzapine and β-glucan; type: in vivo, mouse; settings: male ICR mice, 4 weeks, 16 h fast, tail vein, olanzapine 3 mg/kg/day p.o. and/or β-glucan 5 v/v% in drinking water, mean ± SD, high-fat control 84.4±14.65, normal diet control 72.6±10.49
[2] = tested on: fasting blood glucose [空腹時血糖値]; assay: Example 2: fasting blood glucose in high-fat-diet ICR mice, clozapine and β-glucan; type: in vivo, mouse; settings: male ICR mice, 4 weeks, 16 h fast, tail vein, clozapine 5 mg/kg/day p.o. with or without β-glucan 5 v/v% in drinking water

Row | SMILES | fasting blood glucose, mean [1] [mg/dL] | fasting blood glucose [2] [mg/dL]
1 | Cc1cc2c(s1)Nc1ccccc1N=C2N1CCN(C)CC1 [オランザピン] | 124.8 ± 16.44 | 
2 | CN1CCN(C2=Nc3cc(Cl)ccc3Nc3ccccc32)CC1 [クロザピン] |  | 124.0 ± 8.91

Source: patent publication JP2014074001A, “抗精神病剤” (KONAN MEDICAL CO Ltd, priority 2012, dated 2014)
